According to ChEMBL document CHEMBL4177616, “Potent anti-melanogenic activity and favorable toxicity profile of selected 4-phenyl hydroxycoumarins in the zebrafish model and the computational molecular modeling studies” (Bioorg Med Chem, 2017):

Experiments:
Danio rerio [1] = species on record: Danio rerio; assay: Toxicity in wild type zebrafish embryos assessed as notochord at 20 ug/ml treated for 96 hrs post fertilization starting from 6 hrs post fertilization by inverted microscopic analysis relative to control; type: organism-based; settings: in vivo
Danio rerio [2] = species on record: Danio rerio; assay: Toxicity in wild type zebrafish embryos assessed as growth retardation at 25 ug/ml treated for 96 hrs post fertilization starting from 6 hrs post fertilization by inverted microscopic analysis relative to control; type: organism-based; settings: in vivo
Danio rerio [3] = species on record: Danio rerio; assay: Toxicity in wild type zebrafish embryos assessed as heart beat at 5 ug/ml treated for 96 hrs post fertilization starting from 6 hrs post fertilization by inverted microscopic analysis relative to control; type: organism-based; settings: in vivo
Danio rerio [4] = species on record: Danio rerio; assay: Toxicity in wild type zebrafish embryos assessed as eyes at 25 ug/ml treated for 96 hrs post fertilization starting from 6 hrs post fertilization by inverted microscopic analysis relative to control; type: organism-based; settings: in vivo
Danio rerio [5] = species on record: Danio rerio; assay: Toxicity in wild type zebrafish embryos assessed as heart beat at 10 ug/ml treated for 96 hrs post fertilization starting from 6 hrs post fertilization by inverted microscopic analysis relative to control; type: organism-based; settings: in vivo
Danio rerio [6] = species on record: Danio rerio; assay: Toxicity in wild type zebrafish embryos assessed as normal embryo at 10 ug/ml treated for 96 hrs post fertilization starting from 6 hrs post fertilization by inverted microscopic analysis relative to control; type: organism-based; settings: in vivo
Melanocyte [7] = assay: Cytotoxicity against wild type zebrafish embryo melanocytes assessed as change in morphology at 2.5 mg/ml treated for 72 hrs post fertilization starting from 6 to 24 hrs post fertilization; type: cell-based, Danio rerio
Danio rerio [8] = species on record: Danio rerio; assay: Toxicity in wild type zebrafish embryos assessed as teratogenic embryo at 5 ug/ml treated for 96 hrs post fertilization starting from 6 hrs post fertilization by inverted microscopic analysis relative to control; type: organism-based; settings: in vivo
[9] = Toxicity in wild type zebrafish embryos assessed as dead embryo at 5 ug/ml treated for 96 hrs post fertilization starting from 6 hrs post fertilization by inverted microscopic analysis relative to control; type: organism-based, Danio rerio; settings: in vivo, read-out: Activity
Danio rerio [10] = species on record: Danio rerio; assay: Toxicity in wild type zebrafish embryos assessed as normal embryo at 20 ug/ml treated for 96 hrs post fertilization starting from 6 hrs post fertilization by inverted microscopic analysis relative to control; type: organism-based; settings: in vivo
Danio rerio [11] = species on record: Danio rerio; assay: Toxicity in wild type zebrafish embryos assessed as unhatched embryo at 10 ug/ml treated for 96 hrs post fertilization starting from 6 hrs post fertilization by inverted microscopic analysis relative to control; type: organism-based; settings: in vivo
Danio rerio [12] = assay: Toxicity in wild type zebrafish embryos assessed as yolk edema at 25 ug/ml treated for 96 hrs post fertilization starting from 6 hrs post fertilization by inverted microscopic analysis relative to control; type: organism-based; settings: in vivo
Melanocyte [13] = assay: Cytotoxicity against wild type zebrafish embryo melanocytes assessed as small and rounded cells at 12.5 ug/ml treated for 72 hrs post fertilization starting from 6 to 24 hrs post fertilization; type: cell-based, Danio rerio
Danio rerio [14] = species on record: Danio rerio; assay: Toxicity in wild type zebrafish embryos assessed as teratogenic embryo at 20 ug/ml treated for 96 hrs post fertilization starting from 6 hrs post fertilization by inverted microscopic analysis relative to control; type: organism-based; settings: in vivo
Danio rerio [15] = species on record: Danio rerio; assay: Toxicity in wild type zebrafish embryos assessed as teratogenic embryo at 50 ug/ml treated for 96 hrs post fertilization starting from 6 hrs post fertilization by inverted microscopic analysis relative to control; type: organism-based; settings: in vivo
Danio rerio [16] = assay: Toxicity in wild type zebrafish embryos assessed as yolk edema at 10 ug/ml treated for 96 hrs post fertilization starting from 6 hrs post fertilization by inverted microscopic analysis relative to control; type: organism-based; settings: in vivo
Danio rerio [17] = species on record: Danio rerio; assay: Toxicity in wild type zebrafish embryos assessed as blood circulation at 5 ug/ml treated for 96 hrs post fertilization starting from 6 hrs post fertilization by inverted microscopic analysis relative to control; type: organism-based; settings: in vivo
Danio rerio [18] = species on record: Danio rerio; assay: Toxicity in wild type zebrafish embryos assessed as skeletal deformities at 25 ug/ml treated for 96 hrs post fertilization starting from 6 hrs post fertilization by inverted microscopic analysis relative to control; type: organism-based; settings: in vivo
Neutrophil = assay: Cytotoxicity against mpx:GFP transgenic zebrafish 24 hrs post fertilization embryo neutrophils assessed as loss in neutrophil at 25 ug/ml relative to control; type: cell-based, Danio rerio
Danio rerio [19] = assay: Toxicity in wild type zebrafish embryos assessed as yolk edema at 20 ug/ml treated for 96 hrs post fertilization starting from 6 hrs post fertilization by inverted microscopic analysis relative to control; type: organism-based; settings: in vivo
[20] = Toxicity in wild type zebrafish embryos assessed as dead embryo at 10 ug/ml treated for 96 hrs post fertilization starting from 6 hrs post fertilization by inverted microscopic analysis relative to control; type: organism-based, Danio rerio; settings: in vivo, read-out: Activity
Danio rerio [21] = species on record: Danio rerio; assay: Toxicity in wild type zebrafish embryos assessed as notochord at 25 ug/ml treated for 96 hrs post fertilization starting from 6 hrs post fertilization by inverted microscopic analysis relative to control; type: organism-based; settings: in vivo
Danio rerio [22] = species on record: Danio rerio; assay: Toxicity in wild type zebrafish embryos assessed as notochord at 10 ug/ml treated for 96 hrs post fertilization starting from 6 hrs post fertilization by inverted microscopic analysis relative to control; type: organism-based; settings: in vivo
Melanocyte [23] = assay: Cytotoxicity against wild type zebrafish embryo melanocytes assessed as punctate cells at 12.5 ug/ml treated for 72 hrs post fertilization starting from 6 to 24 hrs post fertilization; type: cell-based, Danio rerio
[24] = Toxicity in wild type zebrafish embryos assessed as dead embryo at 20 ug/ml treated for 96 hrs post fertilization starting from 6 hrs post fertilization by inverted microscopic analysis relative to control; type: organism-based, Danio rerio; settings: in vivo, read-out: Activity
Danio rerio [25] = species on record: Danio rerio; assay: Toxicity in wild type zebrafish embryos assessed as heart beat at 25 ug/ml treated for 96 hrs post fertilization starting from 6 hrs post fertilization by inverted microscopic analysis relative to control; type: organism-based; settings: in vivo
Danio rerio [26] = species on record: Danio rerio; assay: Toxicity in wild type zebrafish embryos assessed as head malformation at 10 ug/ml treated for 96 hrs post fertilization starting from 6 hrs post fertilization by inverted microscopic analysis relative to control; type: organism-based; settings: in vivo
Danio rerio [27] = species on record: Danio rerio; assay: Toxicity in wild type zebrafish embryos assessed as unhatched embryo at 25 ug/ml treated for 96 hrs post fertilization starting from 6 hrs post fertilization by inverted microscopic analysis relative to control; type: organism-based; settings: in vivo
Danio rerio [28] = assay: Toxicity in wild type zebrafish embryos assessed as pericardial edema at 20 ug/ml treated for 96 hrs post fertilization starting from 6 hrs post fertilization by inverted microscopic analysis relative to control; type: organism-based; settings: in vivo
Danio rerio [29] = species on record: Danio rerio; assay: Toxicity in wild type zebrafish embryos assessed as skeletal deformities at 5 ug/ml treated for 96 hrs post fertilization starting from 6 hrs post fertilization by inverted microscopic analysis relative to control; type: organism-based; settings: in vivo
Danio rerio [30] = species on record: Danio rerio; assay: Toxicity in wild type zebrafish embryos assessed as notochord at 5 ug/ml treated for 96 hrs post fertilization starting from 6 hrs post fertilization by inverted microscopic analysis relative to control; type: organism-based; settings: in vivo
Danio rerio [31] = species on record: Danio rerio; assay: Toxicity in wild type zebrafish embryos assessed as blood circulation at 20 ug/ml treated for 96 hrs post fertilization starting from 6 hrs post fertilization by inverted microscopic analysis relative to control; type: organism-based; settings: in vivo
Danio rerio [32] = species on record: Danio rerio; assay: Toxicity in wild type zebrafish embryos assessed as teratogenic embryo at 10 ug/ml treated for 96 hrs post fertilization starting from 6 hrs post fertilization by inverted microscopic analysis relative to control; type: organism-based; settings: in vivo
Melanocyte [33] = assay: Cytotoxicity against wild type zebrafish embryo melanocytes assessed as barely visible cells at 12.5 ug/ml treated for 72 hrs post fertilization starting from 6 to 24 hrs post fertilization; type: cell-based, Danio rerio
Melanocyte [34] = assay: Cytotoxicity against wild type zebrafish embryo melanocytes assessed as number of melanocyte at 2.5 mg/ml treated for 72 hrs post fertilization starting from 6 to 24 hrs post fertilization; type: cell-based, Danio rerio
Melanocyte [35] = assay: Cytotoxicity against wild type zebrafish embryo melanocytes assessed as change in morphology; type: cell-based, Danio rerio
Danio rerio [36] = assay: Toxicity in wild type zebrafish embryos assessed as yolk edema at 5 ug/ml treated for 96 hrs post fertilization starting from 6 hrs post fertilization by inverted microscopic analysis relative to control; type: organism-based; settings: in vivo
Danio rerio [37] = species on record: Danio rerio; assay: Toxicity in wild type zebrafish embryos assessed as eyes at 20 ug/ml treated for 96 hrs post fertilization starting from 6 hrs post fertilization by inverted microscopic analysis relative to control; type: organism-based; settings: in vivo

Structure (SMILES) | Activity (Danio rerio [1]) [%] | Activity (Danio rerio [2]) [%] | Activity (Danio rerio [3]) [%] | Activity (Danio rerio [4]) [%] | Activity (Danio rerio [5]) [%] | Activity (Danio rerio [6]) [%] | Activity (Melanocyte [7]) | Activity (Danio rerio [8]) [%] | mortality at 5 ug/ml [9] [%] | Activity (Danio rerio [10]) [%] | Activity (Danio rerio [11]) [%] | Activity (Danio rerio [12]) [%] | Activity (Melanocyte [13]) | Activity (Neutrophil) | Activity (Danio rerio [21]) [%] | Activity (Melanocyte [23]) | Activity (Danio rerio [25]) [%] | Activity (Danio rerio [27]) [%] | Activity (Melanocyte [33]) | Activity (Melanocyte [35]) | other results
O=c1cc(-c2ccccc2)c2c(O)cc(O)cc2o1 | 0 | 0 | 0 | 0 | 0 | 100 | Non-Toxic | 0 | 0 | 100 | 0 | 0 | Non-Toxic | Non-Toxic | 0 | Non-Toxic | 0 | 0 | Non-Toxic | Dose-dependent effect and Tde | Activity (Danio rerio [14]): 0%; Activity (Danio rerio [15]): 25%; Activity (Danio rerio [16]): 0%; Activity (Danio rerio [17]): 0%; Activity (Danio rerio [18]): 0%; Activity (Danio rerio [19]): 0%; mortality at 10 ug/ml [20]: 0%; Activity (Danio rerio [22]): 0%; mortality at 20 ug/ml [24]: 0%; Activity (Danio rerio [26]): 0%; Activity (Danio rerio [28]): 0%; Activity (Danio rerio [29]): 0%; Activity (Danio rerio [30]): 0%; Activity (Danio rerio [31]): 0%; Activity (Danio rerio [32]): 0%; Activity (Melanocyte [34]): Non-Toxic; Activity (Danio rerio [36]): 0%; Activity (Danio rerio [37]): 0%
Oc1ccc(O)cc1 [HYDROQUINONE] | 0 | 100 | 0 | 100 | 90 | 0 | – | 100 | 0 | 0 | 0 | 100 | Non-Toxic | 30% | 0 | Non-Toxic | 100 | 100 | Non-Toxic | Dose-dependent effect and Tde | Activity (Danio rerio [14]): 30%; Activity (Danio rerio [15]): 0%; Activity (Danio rerio [16]): 0%; Activity (Danio rerio [17]): 0%; Activity (Danio rerio [19]): 100%; mortality at 10 ug/ml [20]: 63.3%; Activity (Danio rerio [22]): 0%; mortality at 20 ug/ml [24]: 70%; Activity (Danio rerio [26]): 100%; Activity (Danio rerio [28]): 100%; Activity (Danio rerio [29]): 0%; Activity (Danio rerio [30]): 0%; Activity (Danio rerio [31]): 100%; Activity (Danio rerio [32]): 36.7%; Activity (Danio rerio [36]): 0%; Activity (Danio rerio [37]): 100%
O=c1cc(-c2ccccc2)c2ccc(O)cc2o1 | 0 | 0 | 0 | 0 | 0 | 100 | Non-Toxic | 0 | 0 | 100 | 0 | 0 | Non-Toxic | Non-Toxic | 0 | Non-Toxic | 0 | 0 | Non-Toxic | Dose-dependent effect and Tde | Activity (Danio rerio [14]): 0%; Activity (Danio rerio [15]): 0%; Activity (Danio rerio [16]): 0%; Activity (Danio rerio [17]): 0%; Activity (Danio rerio [18]): 0%; Activity (Danio rerio [19]): 0%; mortality at 10 ug/ml [20]: 0%; Activity (Danio rerio [22]): 0%; mortality at 20 ug/ml [24]: 0%; Activity (Danio rerio [26]): 0%; Activity (Danio rerio [28]): 0%; Activity (Danio rerio [29]): 0%; Activity (Danio rerio [30]): 0%; Activity (Danio rerio [31]): 0%; Activity (Danio rerio [32]): 0%; Activity (Melanocyte [34]): Non-Toxic; Activity (Danio rerio [36]): 0%; Activity (Danio rerio [37]): 0%
O=c1cc(CO)occ1O [KOJIC ACID] | – | 0 | – | 0 | – | – | Non-Toxic | – | – | – | – | 0 | Non-Toxic | Non-Toxic | 0 | Non-Toxic | 0 | 0 | Non-Toxic | Dose-dependent effect and Tde | Activity (Danio rerio [18]): 0%; Activity (Melanocyte [34]): Non-Toxic
